The structures appear in SMILES notation. Values joined by “and” are separate entries in the source; they are usually repeats but may differ in a detail not shown here. Equal values may be shown once. Inconclusive results and toxic doses are left out.

The assay has as its system L1210 leukemia ip in BDF1 mice, survival T/C. Description: NCI In Vivo Anticancer Drug Screen. Data for tumor model L1210 Leukemia (intraperitoneal) in B6D2F1 (BDF1) mice. As to conditions: endpoint: mean survival time, higher = longer survival. In short, it runs like this: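 Each compound was tested against a transplantable tumor grown in mice. The endpoint was survival, with treated animals benchmarked against vehicle controls as a simple ratio.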

The mark [1] stands for this setting: dose: 50.0 mg/kg/injection, schedule: Q01DX009 (ip), vehicle: Klucel (hydroxypropylcellulose) (HPC).
[2] abbreviates: dose: 100.0 mg/kg/injection, schedule: Q01DX001 (ip), vehicle: saline.
The mark [3] stands for this setting: dose: 200.0 mg/kg/injection, schedule: Q01DX001 (ip), vehicle: saline.
[4] abbreviates: dose: 400.0 mg/kg/injection, schedule: Q01DX001 (ip), vehicle: saline.
The mark [5] stands for this setting: dose: 100.0 mg/kg/injection, schedule: Q04DX002 (ip), vehicle: saline.
Setting [6] is: dose: 100.0 mg/kg/injection, schedule: Q04DX003 (ip), vehicle: saline with Tween-80.
[7] abbreviates: dose: 200.0 mg/kg/injection, schedule: Q04DX003 (ip), vehicle: saline with Tween-80.
Setting [8] is: dose: 400.0 mg/kg/injection, schedule: Q04DX003 (ip), vehicle: saline with Tween-80.
Where [9] appears, read: dose: 100.0 mg/kg/injection, schedule: Q01DX001 (ip), vehicle: carboxymethylcellulose (CMC).
Setting [10] is: dose: 200.0 mg/kg/injection, schedule: Q01DX001 (ip), vehicle: carboxymethylcellulose (CMC).
The mark [11] stands for this setting: dose: 400.0 mg/kg/injection, schedule: Q01DX001 (ip), vehicle: carboxymethylcellulose (CMC).
The mark [12] stands for this setting: dose: 200.0 mg/kg/injection, schedule: Q04DX002 (ip), vehicle: saline.
[13] abbreviates: dose: 400.0 mg/kg/injection, schedule: Q04DX002 (ip), vehicle: saline.
Setting [14] is: dose: 12.5 mg/kg/injection, schedule: Q01DX009 (ip), vehicle: saline with Tween-80.
The mark [15] stands for this setting: dose: 25.0 mg/kg/injection, schedule: Q01DX009 (ip), vehicle: saline with Tween-80.

Regarding `O=c1[nH]cnc2cc(Cl)ccc12`, the T/C runs as follows: under setting [1], 91 % of control; (dose: 100.0 mg/kg/injection, schedule: Q01DX009 (ip), vehicle: Klucel (hydroxypropylcellulose) (HPC)) 102 % of control; (dose: 200.0 mg/kg/injection, schedule: Q01DX009 (ip), vehicle: Klucel (hydroxypropylcellulose) (HPC)) 100 % of control.

With `O=C(O)CCn1c(=O)n(CCC(=O)O)c(=O)n(CCC(=O)O)c1=O`, the T/C reads like this: (dose: 100.0 mg/kg/injection, schedule: Q04DX002 (ip), vehicle: Klucel (hydroxypropylcellulose) (HPC)) 100 % of control; (dose: 200.0 mg/kg/injection, schedule: Q04DX002 (ip), vehicle: Klucel (hydroxypropylcellulose) (HPC)) 93 % of control; (dose: 400.0 mg/kg/injection, schedule: Q04DX002 (ip), vehicle: Klucel (hydroxypropylcellulose) (HPC)) 86 % of control.

For `CCC(CC)c1ccc2ccccc2c1`, the T/C was 100 % of control under setting [2], 98 % of control under setting [3] and 101 % of control under setting [4].

For `O=C(O)CCc1cccc(O)c1`, the T/C was 111 % of control (dose: 25.0 mg/kg/injection, schedule: Q04DX002 (ip), vehicle: saline); 111 % of control (dose: 50.0 mg/kg/injection, schedule: Q04DX002 (ip), vehicle: saline); 101 % of control under setting [5].

In the case of `CCCN(CCC)c1ccc(N=Nc2cc(Cl)ccc2Cl)cc1`, the T/C is, setting by setting: under setting [6], 91 % of control; under setting [7], 93 % of control; under setting [8], 91 % of control.

For `CC(C)CCCC(C)C1CCC2C3CC=C4CC(OC(=O)Nc5ccc(S(=O)(=O)NC6CCCCC6)cc5)CCC4(C)C3CCC12C` (stereo not given), the T/C (dose: 100.0 mg/kg/injection, schedule: Q01DX001 (sc), vehicle: steriod suspending solution) is 110 % of control; the T/C (dose: 200.0 mg/kg/injection, schedule: Q01DX001 (sc), vehicle: steriod suspending solution) is 108 % of control; the T/C (dose: 400.0 mg/kg/injection, schedule: Q01DX001 (sc), vehicle: steriod suspending solution) was 105 % of control.

Regarding `O=C(CSc1cc(Cl)ccc1Cl)Nc1ccccc1`, the T/C is, setting by setting: (dose: 100.0 mg/kg/injection, schedule: Q01DX001 (ip), vehicle: other) 95 % of control; (dose: 200.0 mg/kg/injection, schedule: Q01DX001 (ip), vehicle: other) 96 % of control; (dose: 400.0 mg/kg/injection, schedule: Q01DX001 (ip), vehicle: other) 96 % of control.

For `Nc1nc(N)c2[nH]cnc2n1` (tested in a mixture with another compound), the T/C reads like this: under setting [9], 93 % of control; under setting [10], 89 % of control; under setting [11], 94 % of control.

As for `O=C(Nc1nccs1)Nc1cc([N+](=O)[O-])ccc1F`, the T/C is 88 % of control (dose: 100.0 mg/kg/injection, schedule: Q04DX003 (ip), vehicle: Klucel (hydroxypropylcellulose) (HPC)); 91 % of control (dose: 200.0 mg/kg/injection, schedule: Q04DX003 (ip), vehicle: Klucel (hydroxypropylcellulose) (HPC)); 88 % of control (dose: 400.0 mg/kg/injection, schedule: Q04DX003 (ip), vehicle: Klucel (hydroxypropylcellulose) (HPC)).

`ClCC1CC2C=CC1C2` (stereo not given): the T/C was 100 % of control (dose: 12.5 mg/kg/injection, schedule: Q01DX009 (ip), vehicle: Klucel (hydroxypropylcellulose) (HPC)); 100 % of control (dose: 25.0 mg/kg/injection, schedule: Q01DX009 (ip), vehicle: Klucel (hydroxypropylcellulose) (HPC)); 102 % of control (dose: 25.0 mg/kg/injection, schedule: Q04DX002 (ip), vehicle: saline with Tween-80); 93 % of control and 98 % of control under setting [1]; 88 % of control (dose: 50.0 mg/kg/injection, schedule: Q04DX002 (ip), vehicle: saline with Tween-80).

Turning to `Cc1ccc(S(=O)(=O)N(CCCc2c(C)nc(N)nc2N)c2ccccc2)cc1`, the T/C was 110 % of control under setting [5], 104 % of control under setting [12] and 91 % of control under setting [13].

For `Cc1ccc(-n2c(N)cc(=O)[nH]c2=S)nc1`, the T/C under setting [5] is 96 % of control, the T/C under setting [12] is 100 % of control and the T/C under setting [13] was 107 % of control.

As for `O=C(c1ccccc1)c1cc(O)c(O)c(O)c1`, the T/C was 99 % of control (dose: 100.0 mg/kg/injection, schedule: Q01DX009 (ip), vehicle: other); 100 % of control (dose: 100.0 mg/kg/injection, schedule: Q04DX003 (ip), vehicle: saline); 90 % of control (dose: 200.0 mg/kg/injection, schedule: Q01DX009 (ip), vehicle: other); 94 % of control (dose: 200.0 mg/kg/injection, schedule: Q04DX003 (ip), vehicle: saline); 99 % of control (dose: 400.0 mg/kg/injection, schedule: Q01DX009 (ip), vehicle: other); 100 % of control (dose: 400.0 mg/kg/injection, schedule: Q04DX003 (ip), vehicle: saline).

Consider `O=C(OC12CCCCC(CCCC1)O2)c1ccc([N+](=O)[O-])cc1`, for which the T/C by setting is: under setting [2], 91 % of control; under setting [3], 93 % of control; under setting [4], 98 % of control.

On to `Cn1cnc([N+](=O)[O-])c1[Se]c1nc(N)nc2nc[nH]c12`, for which the T/C is, setting by setting: (dose: 25.0 mg/kg/injection, schedule: Q01DX005 (ip), vehicle: other) 159 % of control; (dose: 50.0 mg/kg/injection, schedule: Q01DX005 (ip), vehicle: other) 92 % of control.

Take `CN1CCN(C2=Cc3ccccc3C(O)C(Cc3ccccc3)=N2)CC1` (stereo not given): the T/C under setting [6] was 100 % of control, the T/C under setting [7] is 96 % of control and the T/C under setting [8] was 96 % of control.

Regarding `CCCOCNC(=O)c1cccnc1`, the T/C is 103 % of control under setting [2]; 97 % of control (dose: 100.0 mg/kg/injection, schedule: Q01DX009 (ip), vehicle: saline); 95 % of control under setting [3]; 94 % of control (dose: 200.0 mg/kg/injection, schedule: Q01DX009 (ip), vehicle: saline); 105 % of control under setting [4]; 103 % of control (dose: 400.0 mg/kg/injection, schedule: Q01DX009 (ip), vehicle: saline).

Regarding `C[CH2][Sn]([c]1ccccc1)([c]1ccccc1)[c]1ccccc1`, the T/C is 97 % of control under setting [14]; 99 % of control under setting [15]; 99 % of control (dose: 50.0 mg/kg/injection, schedule: Q01DX009 (ip), vehicle: saline with Tween-80).

Turning to `O=C1CCCc2c1cc(C1CCCC1)c1ccccc21`, the T/C is 92 % of control under setting [9], 95 % of control under setting [10] and 98 % of control under setting [11].

On to `O=S1(=O)CCC2CCCCC2C1` (stereo not given), for which the T/C is, setting by setting: (dose: 6.25 mg/kg/injection, schedule: Q01DX009 (ip), vehicle: saline with Tween-80) 94 % of control; under setting [14], 100 % of control; under setting [15], 90 % of control.

As for `CSc1ncnc2c1ncn2N1CCCC1COS(=O)(=O)c1ccc(C)cc1` (stereo not given), the T/C reads like this: (dose: 100.0 mg/kg/injection, schedule: Q01DX001 (ip), vehicle: DMSO) 96 % of control; (dose: 200.0 mg/kg/injection, schedule: Q01DX001 (ip), vehicle: DMSO) 90 % of control; (dose: 400.0 mg/kg/injection, schedule: Q01DX001 (ip), vehicle: DMSO) 95 % of control.

The record behind these values is PubChem BioAssay AID248 (DTP/NCI, 2004).
